Source: patent US20210070684A1, “PRODUCTION OF HIGHLY PURE META,META-COUPLED BIS(4-ALKYLPHENOL) DERIVATIVES AND USES THEREOF” (KATHOLIEKE UNIVERSITEIT LEUVEN, priority 2017, published 2021)

COc1cc(C)c(Cc2cc(O)c(OC)cc2C)cc1O [Reference Example 1, 5,5′-methylenebis(2-methoxy-4-methylphenol)]
melting point: 134 to 136 °C
